Laboratory results published in patent publication US9849131B2 (AUTIFONY THERAPEUTICS LIMITED, priority 2009, dated 2017).

Tests used:
[1] = system: parvalbumin-positive interneurons in the somatosensory cortex; experiment: Firing of parvalbumin-positive interneurons in somatosensory cortex slices, in vitro (Example 90); type: cell-based, mouse; details: vs TEA alone, p<0.05
[2] = system: high voltage-activated potassium currents in MNTB neurons (presumed to be mediated by Kv3.1 channels); experiment: Potassium currents recorded from MNTB neurons, in vitro (Example 91); type: cell-based, mouse; details: 10 microM in the continuing presence of TEA (1 mM); voltage steps to +40 mV
Method: Male CBA/Ca mice (aged 12-16 days) were used in these experiments (in accordance with the UK Animals Scientific Procedures Act, 1986). Brain slices containing the medial nucleus of the trapezoid body (MNTB) were prepared as described previously (Brew and Forsythe, 2005).
Chemicals and reagents were purchased from Sigma, (Poole, UK) unless otherwise noted. EXAMPLE 19 was dissolved in DMSO and diluted in ACSF to the required concentration.
Recordings from identified MNTB neurons were conducted as previously described (Brew and Forsythe, 2005). Slices was placed in a superfusion chamber on an inverted microscope stage and continuously perfused with gassed (95% O2-5% CO2) ACSF at a rate of 1 ml min^−1 at room temperature. Whole-cell recordings were made from visually identified MNTB neurons using an […] amplifier (Molecular Devices, Union City, Calif., USA). Patch solution comprised (in mM) potassium gluconate (97.5), KCl (32.5), Hepes (40), EGTA (5), MgCl2 (1), Na2 phosphocreatin (5), pH 7.2 with KOH. Pipettes had resistances of 3-5 MΩ and series resistances were 6-10 MΩ (compensated by 70%, 10 μs lag). Access resistance was frequently monitored and the recording discarded if increases were more than 2 MΩ. […]

[3] = Blood concentrations in satellite animals of the electroshock seizure study; type: in vivo, rat; parameters: unbound concentration in blood: unit not given here; details: for unbound concentration in blood: rat
Method: Testing involved determining the threshold for tonic hindlimb extensor seizures using a Hugo Sachs Electronik stimulator which delivers a constant current of 0.3 second duration, 50 Hz, sinewave form, fully adjustable between 1 and 300 mA. Stimuli were delivered via corneal electrodes (Stean T O, Atkins A R, Heidbreder C A, Quinn L P, Trail B K, Upton N. (2005) Br J Pharmacol. 144(5):628-35). Seizure threshold was determined using the ‘up and down’ method of Kimball et al. (1957)(Kimball A W, Burnett W T Jr, Doherty D G. (1957) Radiat Res. 7(1):1-12). The first animal tested in each group was stimulated with a current that might be expected to be close to the threshold for induction of a seizure. If a tonic seizure was not induced, then the next animal in the group received a stimulus 5 mA higher. If a tonic seizure was induced, then the next animal received a stimulus 5 mA lower. This is repeated for all animals within the control (vehicle) group. In the case of groups treated with a test compound steps of 5 to 10 mA were used. At the end of the study, blood samples were taken for analysis of the drug concentrations in this compartment (n=4/group).
Blood concentrations of Compound 19 measured in satellite animals 2 hours after dosing were 5.3 and 9.11 μg/mL following the doses of 30 and 60 mg/kg p.o., respectively.

SMILES: CC[C@H]1NC(=O)N(c2ccc(Oc3ccc(C)c(OC)c3)nc2)C1=O [Example 19, (5R)-5-ethyl-3-(6-{[4-methyl-3-(methyloxy)phenyl]oxy}-3-pyridinyl)-2,4-imidazolidinedione]
- reversal of TEA-induced lowering of maximal firing frequency ([1]; TEA (0.5 mM) plus compound at 10 μM): significantly reversed
- reversal of TEA-induced lowering of maximal firing frequency ([1]; TEA (0.5 mM) plus compound): significantly reversed
- reversal of TEA-induced reduction of high voltage-activated potassium current amplitude [2]: reversed
- concentration at 2 h ([3]; CD, whole blood, oral, rat satellite animals, 2 hours after 60 mg/kg p.o.): 9110 ng/mL
- unbound concentration in blood ([3]; 2 hours after 30 mg/kg p.o.): 1.3
- unbound concentration in blood ([3]; 2 hours after 60 mg/kg p.o.): 2.21
